According to patent US10780090B2, “Heteroaryl compounds useful as inhibitors of SUMO activating enzyme” (Millennium Pharmaceuticals, Inc., priority 2014, dated 2020):

Target: recombinant human SAE enzyme (Homo sapiens (Human), UniProt Q9UBT2)
Experiment: SAE HTRF enzyme assay
Format: biochemical
Conditions: for inhibition at 0.111 µM: read-out: Percent Inhibition
Method in brief: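 First, recombinant human SAE (0.11 nM) transfers Sumo-Flag onto Ubc9-GST using 0.5 μM ATP for 105 min at 24° C. Next, EDTA-containing detection buffer with labelled anti-Flag and anti-GST antibodies is added for 2 h. Finally, FRET is quantified and percent inhibition or IC50 derived.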

[1] = SAE inhibition at compound concentration 0.111 μM
[2] = SAE inhibition, class symbols, legend in nM

recombinant human SAE enzyme, sequence (Q9UBT2 whole entry): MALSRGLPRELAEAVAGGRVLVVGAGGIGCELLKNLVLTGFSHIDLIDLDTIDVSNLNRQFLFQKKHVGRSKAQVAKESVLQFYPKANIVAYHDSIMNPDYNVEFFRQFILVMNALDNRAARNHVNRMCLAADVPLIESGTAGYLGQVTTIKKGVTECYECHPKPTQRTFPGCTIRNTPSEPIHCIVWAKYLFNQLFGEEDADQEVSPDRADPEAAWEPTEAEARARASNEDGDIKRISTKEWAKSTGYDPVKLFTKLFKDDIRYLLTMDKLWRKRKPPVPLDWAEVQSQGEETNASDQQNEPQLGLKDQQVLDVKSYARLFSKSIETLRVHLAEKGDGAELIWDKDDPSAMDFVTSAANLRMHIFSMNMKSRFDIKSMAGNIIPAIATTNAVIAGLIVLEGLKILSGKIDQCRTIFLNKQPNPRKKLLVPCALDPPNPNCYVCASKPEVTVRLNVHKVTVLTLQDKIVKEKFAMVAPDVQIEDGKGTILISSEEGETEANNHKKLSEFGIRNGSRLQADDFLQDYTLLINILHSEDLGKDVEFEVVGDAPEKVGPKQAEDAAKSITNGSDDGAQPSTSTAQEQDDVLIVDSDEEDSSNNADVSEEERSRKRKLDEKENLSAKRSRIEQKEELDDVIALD
recombinant human SAE enzyme, sequence (Q9UBE0 whole entry partner): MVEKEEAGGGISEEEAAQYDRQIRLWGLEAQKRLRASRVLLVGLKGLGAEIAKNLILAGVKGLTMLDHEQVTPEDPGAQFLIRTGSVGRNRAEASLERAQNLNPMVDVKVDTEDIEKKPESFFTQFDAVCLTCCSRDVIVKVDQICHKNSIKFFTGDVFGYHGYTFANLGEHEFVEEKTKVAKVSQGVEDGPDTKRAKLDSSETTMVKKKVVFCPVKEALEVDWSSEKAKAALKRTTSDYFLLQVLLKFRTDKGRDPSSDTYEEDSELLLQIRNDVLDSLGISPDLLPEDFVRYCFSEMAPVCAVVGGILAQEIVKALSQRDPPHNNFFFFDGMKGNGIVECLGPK

Compound | Percent Inhibition [1] | IC50 [2] | inhibition at 0.111 µM (Concentration 0.111 μM) | IC50 (class symbols A/B/C) | Percent Inhibition (Concentration 0.111 μM)
NS(=O)(=O)OC[C@H]1C[C@@H](Nc2ncncc2C(=O)c2cc([C@@H]3OCC(F)(F)c4ccccc43)cs2)C[C@@H]1O (single isomer, unassigned) [I-293b, [(1R,2S,4R)-4-{[5-({4-[(1R)-4,4-difluoro-3,4-dihydro-1H-isochromen-1-yl]-2-thienyl}carbonyl)pyrimidin-4-yl]amino}-2-hydroxycyclopentyl]methyl sulfamate or [(1R,2S,4R)-4-{[5-({4-[(1S)-4,4-difluoro-3,4-dihydro-1H-isochromen-1-yl]-2-thienyl}carbonyl)pyrimidin-4-yl]amino}-2-hydroxycyclopentyl]methyl sulfamate] | 98% | < 10 nM |  |  | 
COc1ccccc1OCc1csc(C(=O)c2cncnc2N[C@@H]2C[C@H](COS(N)(=O)=O)[C@@H](O)C2)c1 [I-80, [(1R,2S,4R)-2-hydroxy-4-{[5-({4-[(2-methoxyphenoxy)methyl]-2-thienyl}carbonyl)pyrimidin-4-yl]amino}cyclopentyl]methyl sulfamate] |  |  | 98% | < 10 nM | 
NS(=O)(=O)OC[C@H]1C[C@@H](Nc2ncncc2C(=O)c2cc([C@@H]3NCCc4ccc(Br)cc43)c(Cl)s2)C[C@@H]1O (single isomer, unassigned) [I-251b, [(1R,2S,4R)-4-{[5-({4-[(1R)-7-bromo-1,2,3,4-tetrahydroisoquinolin-1-yl]-5-chloro-2-thienyl}carbonyl)pyrimidin-4-yl]amino}-2-hydroxycyclopentyl]methyl sulfamate or [(1R,2S,4R)-4-{[5-({4-[(1S)-7-bromo-1,2,3,4-tetrahydroisoquinolin-1-yl]-5-chloro-2-thienyl}carbonyl)pyrimidin-4-yl]amino}-2-hydroxycyclopentyl]methyl sulfamate] |  |  |  | < 10 nM | 97
CC(C)(O)c1ccc(C(=O)c2cncnc2N[C@@H]2C[C@H](COS(N)(=O)=O)[C@@H](O)C2)s1 [I-235, {(1R,2S,4R)-2-hydroxy-4-[(5-{[5-(2-hydroxypropan-2-yl)-2-thienyl]carbonyl}pyrimidin-4-yl)amino]cyclopentyl}methyl sulfamate] |  |  | 22% | 100 to 1000 nM | 
NS(=O)(=O)OC[C@H]1C[C@@H](Nc2ncncc2C(=O)c2cc(Cc3cccc(Cl)c3Cl)cs2)C[C@@H]1O [I-155, {(1R,2S,4R)-4-[(5-{[4-(2,3-dichlorobenzyl)-2-thienyl]carbonyl}pyrimidin-4-yl)amino]-2-hydroxycyclopentyl}methyl sulfamate] |  |  | 92% | < 10 nM | 
NC(c1cccc(Cl)n1)c1cc(C(=O)c2cncnc2NC2CC(O)C(COS(N)(=O)=O)C2)sc1Cl (mixture of isomers) [I-25, [(1R,2S,4R)-4-{[5-({4-[(S)-amino(6-chloropyridin-2-yl)methyl]-5-chloro-2-thienyl}carbonyl)pyrimidin-4-yl]amino}-2-hydroxycyclopentyl]methyl sulfamate and [(1R,2S,4R)-4-{[5-({4-[(R)-amino(6-chloropyridin-2-yl)methyl]-5-chloro-2-thienyl}carbonyl)pyrimidin-4-yl]amino}-2-hydroxycyclopentyl]methyl sulfamate] |  |  |  | < 10 nM | 98
CN1Cc2cc(Cl)ccc2[C@@H]1c1csc(C(=O)c2cncnc2N[C@@H]2C[C@H](COS(N)(=O)=O)[C@@H](O)C2)c1 (mixture of isomers) [I-322, [(1R,2S,4R)-4-{[5-({4-[(1R)-5-chloro-2-methyl-2,3-dihydro-1H-isoindol-1-yl]-2-thienyl}carbonyl)pyrimidin-4-yl]amino}-2-hydroxycyclopentyl]methyl sulfamate and [(1R,2S,4R)-4-{[5-({4-[(1S)-5-chloro-2-methyl-2,3-dihydro-1H-isoindol-1-yl]-2-thienyl}carbonyl)pyrimidin-4-yl]amino}-2-hydroxycyclopentyl]methyl sulfamate] | 92% | 10 to 100 nM |  |  | 
Cc1sc(C(=O)c2cncnc2N[C@@H]2C[C@H](COS(N)(=O)=O)[C@@H](O)C2)cc1[C@H]1OCCc2ccc(Cl)cc21 [I-257a, [(1R,2S,4R)-4-{[5-({4-[(1S)-7-chloro-3,4-dihydro-1H-isochromen-1-yl]-5-methyl-2-thienyl}carbonyl)pyrimidin-4-yl]amino}-2-hydroxycyclopentyl]methyl sulfamate] |  |  | 74% | 10 to 100 nM | 
NS(=O)(=O)OC[C@H]1C[C@@H](Nc2ncncc2C(=O)c2cc([C@@H]3NCCc4ccc(Cl)nc43)c(Cl)s2)C[C@@H]1O (single isomer, unassigned) [I-253b, [(1R,2S,4R)-4-{[5-({5-chloro-4-[(8S)-2-chloro-5,6,7,8-tetrahydro-1,7-naphthyridin-8-yl]-2-thienyl}carbonyl)pyrimidin-4-yl]amino}-2-hydroxycyclopentyl]methyl sulfamate or [(1R,2S,4R)-4-{[5-({5-chloro-4-[(8R)-2-chloro-5,6,7,8-tetrahydro-1,7-naphthyridin-8-yl]-2-thienyl}carbonyl)pyrimidin-4-yl]amino}-2-hydroxycyclopentyl]methyl sulfamate] |  |  |  | 10 to 100 nM | 83
NS(=O)(=O)OC[C@H]1C[C@@H](Nc2ncncc2C(=O)c2cc([C@H](O)c3cccc(Cl)c3F)c(Cl)s2)C[C@@H]1O (mixture of isomers) [I-40, [(1R,2S,4R)-4-{[5-({5-chloro-4-[(R)-(3-chloro-2-fluorophenyl)(hydroxy)methyl]-2-thienyl}carbonyl)pyrimidin-4-yl]amino}-2-hydroxycyclopentyl]methyl sulfamate and [(1R,2S,4R)-4-{[5-({5-chloro-4-[(S)-(3-chloro-2-fluorophenyl)(hydroxy)methyl]-2-thienyl}carbonyl)pyrimidin-4-yl]amino}-2-hydroxycyclopentyl]methyl sulfamate] |  |  |  | < 10 nM | 96
COCc1csc(C(=O)c2cncnc2N[C@@H]2C[C@H](COS(N)(=O)=O)[C@@H](O)C2)c1 [I-217, {(1R,2S,4R)-2-Hydroxy-4-[(5-{[4-(methoxymethyl)-2-thienyl]carbonyl}pyrimidin-4-yl)amino]cyclopentyl}methyl sulfamate] |  |  | 36% | 100 to 1000 nM | 
Cc1sc(C(=O)c2cncnc2N[C@@H]2C[C@H](COS(N)(=O)=O)[C@@H](O)C2)cc1[C@@H]1OCCc2ccc(CN(C)C)cc21 (mixture of isomers) [I-329, [(1R,2S,4R)-4-({5-[(4-{(1R)-7-[(dimethylamino)methyl]-3,4-dihydro-1H-isochromen-1-yl}-5-methyl-2-thienyl)carbonyl]pyrimidin-4-yl}amino)-2-hydroxycyclopentyl]methyl sulfamate and [(1R,2S,4R)-4-({5-[(4-{(1S)-7-[(dimethylamino)methyl]-3,4-dihydro-1H-isochromen-1-yl}-5-methyl-2-thienyl)carbonyl]pyrimidin-4-yl}amino)-2-hydroxycyclopentyl]methyl sulfamate] | 36% | 100 to 1000 nM |  |  | 
NS(=O)(=O)OC[C@H]1C[C@@H](Nc2ncncc2C(=O)c2cc([C@@H]3OCCc4ccc(Br)cc43)cs2)C[C@@H]1O.NS(=O)(=O)OC[C@H]1C[C@@H](Nc2ncncc2C(=O)c2cc([C@H]3OCCc4ccc(Br)cc43)cs2)C[C@@H]1O (mixture of isomers) [I-268, [(1R,2S,4R)-4-{[5-({4-[(1R)-7-bromo-3,4-dihydro-1H-isochromen-1-yl]-2-thienyl}carbonyl)pyrimidin-4-yl]amino}-2-hydroxycyclopentyl]methyl sulfamate and [(1R,2S,4R)-4-{[5-({4-[(1S)-7-bromo-3,4-dihydro-1H-isochromen-1-yl]-2-thienyl}carbonyl)pyrimidin-4-yl]amino}-2-hydroxycyclopentyl]methyl sulfamate] |  |  |  | < 10 nM | 100
[(1R,2S,4R)-4-{[5-({4-[(1R)-7-bromo-1,2,3,4-tetrahydroisoquinolin-1-yl]-5-chloro-2-thienyl}carbonyl)pyrimidin-4-yl]amino}-2-hydroxycyclopentyl]methyl sulfamate and [(1R,2S,4R)-4-{[5-({4-[(1S)-7-bromo-1,2,3,4-tetrahydroisoquinolin-1-yl]-5-chloro-2-thienyl}carbonyl)pyrimidin-4-yl]amino}-2-hydroxycyclopentyl]methyl sulfamate [I-251] |  |  |  | < 10 nM | 100
CN1CCc2ccc(Cl)cc2[C@@H]1c1cc(C(=O)c2cncnc2N[C@@H]2C[C@H](COS(N)(=O)=O)[C@@H](O)C2)sc1Cl (single isomer, unassigned) [I-311a, [(1R,2S,4R)-4-{[5-({5-chloro-4-[(1R)-7-chloro-2-methyl-1,2,3,4-tetrahydroisoquinolin-1-yl]-2-thienyl}carbonyl)pyrimidin-4-yl]amino}-2-hydroxycyclopentyl]methyl sulfamate or [(1R,2S,4R)-4-{[5-({5-chloro-4-[(1S)-7-chloro-2-methyl-1,2,3,4-tetrahydroisoquinolin-1-yl]-2-thienyl}carbonyl)pyrimidin-4-yl]amino}-2-hydroxycyclopentyl]methyl sulfamate] | 65% | 10 to 100 nM |  |  | 
NS(=O)(=O)OC[C@H]1C[C@@H](Nc2ncncc2C(=O)c2cc(C(=O)c3ccccc3)co2)C[C@@H]1O [I-208, [(1R,2S,4R)-4-{[5-(4-benzoyl-2-furoyl)pyrimidin-4-yl]amino}-2-hydroxycyclopentyl]methyl sulfamate] |  |  | 46% | 100 to 1000 nM | 
